Experimental data as given in article PMC10823514, “Target Identification of a Class of Pyrazolone Protein Aggregation Inhibitor Therapeutics for Amyotrophic Lateral Sclerosis” (ACS Central Science, 2023).

Assays:
14-3-3-E = molecular target: T1, 14-3-3-E (Homo sapiens, UniProt P62258); assay: Fluorescent thermal shift assay (FTSA) with 14-3-3-E; assay type: binding; conditions: for Tm shift (ΔTm): SYPRO orange
T1 construct: His-tag (TEV-cleavable) (cleaved yes); host or cells: E. coli (BL21)
T1 sequence (P62258 1-255): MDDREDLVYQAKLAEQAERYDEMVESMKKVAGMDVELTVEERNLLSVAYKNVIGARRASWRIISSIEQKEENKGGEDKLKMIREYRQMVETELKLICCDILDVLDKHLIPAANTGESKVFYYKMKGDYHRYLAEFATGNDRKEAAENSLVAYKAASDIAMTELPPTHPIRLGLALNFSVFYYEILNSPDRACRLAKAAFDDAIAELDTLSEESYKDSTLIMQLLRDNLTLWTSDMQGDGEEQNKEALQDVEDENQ
Method: (§1) His-tagged 14-3-3-E, B, and H plasmids were purchased from Addgene (plasmid ID# 31562, 39128, and 38814, respectively). E. coli (BL21) were transformed with extracted plasmids via heat shock and plated on selected media. Individual colonies were selected, grown, and sequenced to confirm gene presence. 1 L cultures were grown to an OD600 of 0.6 at 37 °C and 220 rpm. Protein expression was induced with 1 mM IPTG and expressed for 12 h at 100 rpm and room temperature (approximately 25 °C). Cells were spun down at 4000 rpm for 15 min at 4 °C and resuspended in lysis buffer containing 50 mM Tris (7.4), 150 mM NaCl, 0.08% DDM, 5 mM imidazole, and 5% glycerol (with an EDTA-free complete mini protease inhibitor cocktail). Cells were lysed via sonication, and the lysate was separated from cell debris by centrifugation at 15,000 rpm, 4 °C, for 45 min. The His-tagged protein was purified using QIAGEN Ni-NTA superflow columns, and the His-tag was removed with TEV protease. His-tag-removed proteins were further purified by size exclusion chromatography. His tag removal and size exclusion chromatography purification were done at the Northwestern University Protein Production core. 14-3-3-Q and 14-3-3-G proteins were purchased from Abchem (catalog numbers ab85270 and ab53869, respectively).
All of the FTSA experiments were conducted in HEPES buffer (60 mM HEPES, 150 mM NaCl, pH 7.4). A DMSO balanced 8-point dilution series of the compound in HEPES buffer was prepared in a 96-well assay plate (200, 100, 50, 25, 12.5, 6.25, 3.125, and 0 μM). Then, a 5 μL volume of the dilution series was transferred to a 384-well PCR plate using a multichannel pipet, and the plate was centrifuged at 1000 rpm for 2 min (the plate was covered with an adhesive aluminum seal). The protein sample was premixed at a concentration of 0.04 μg/μL with a 5X concentration of SYPRO orange in HEPES buffer, and a 5 μL aliquot was added to the compound wells. The plate was covered with an optical adhesive seal and was shaken for 2 min, followed by centrifugation at 1000 rpm for 2 min. The thermal scan was performed from 20 to 90 °C with a temperature gradient of 0.5 °C/min. The fluorescence was measured on a Bio-Rad CFX384 real-time PCR instrument.

transgenic mice = conditions: earlier work of the authors; cited from earlier work
14-3-3-B = molecular target: T2, 14-3-3-B (Homo sapiens, UniProt P31946); assay: Fluorescent thermal shift assay (FTSA) with 14-3-3-B; assay type: binding; conditions: 0 and 100 μM P2
T2 construct: His-tag (TEV-cleavable) (cleaved yes); host or cells: E. coli (BL21)
T2 sequence (P31946 1-246): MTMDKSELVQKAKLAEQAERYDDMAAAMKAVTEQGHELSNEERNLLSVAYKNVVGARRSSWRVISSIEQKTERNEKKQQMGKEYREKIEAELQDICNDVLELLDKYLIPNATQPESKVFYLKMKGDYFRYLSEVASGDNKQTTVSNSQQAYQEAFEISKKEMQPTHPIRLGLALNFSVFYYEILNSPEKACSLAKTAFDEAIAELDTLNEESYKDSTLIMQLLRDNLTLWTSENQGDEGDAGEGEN
Method: as §1, with “14-3-3-Q and 14-3-3-G proteins were purchased from Abchem (catalog numbers ab85270 and ab53869, respectively).” left out
All of the FTSA experiments were conducted in HEPES buffer (60 mM HEPES, 150 mM NaCl, pH 7.4). […] The fluorescence was measured on a Bio-Rad CFX384 real-time PCR instrument.

[1] = molecular target: T3, 25 kDa protein band in PC12 SOD1^G93A cells (Rattus norvegicus, UniProt P62260); assay: Live-cell photoaffinity labeling: concentration-dependent covalent modification of the 25 kDa band by PRAPP (in-gel fluorescence, Hill fit); assay type: binding; conditions: all three treatment scenarios
T3 construct: we identified a 25 kDa covalently modified protein band in the PC12 SOD1^G93A cell line; endogenous in cells; host or cells: PC12-SOD1^G93A cells (live-cell UV photolabeling, then lysis)
T3 sequence (P62260 1-255): T1 sequence (P62258 1-255)
Method: PC12-SOD1^G93A cells were cultured and grown to 90% confluency (in 6-well plates) and washed once with PBS followed by the addition of serum medium containing the appropriate analyte at the indicated concentrations. Three incubation scenarios were studied (at 37 °C): Scenario 1) 12 h preincubation with PRAPP in the absence of MG-132; Scenario 2) 12 h preincubation with PRAPP in the absence of MG-132 followed by an additional 24 h incubation (control); and Scenario 3) 12 h preincubation with PRAPP followed by the addition of MG-132 (100 nM) and an additional 24 h incubation. After incubation, the medium was discarded and cells were washed with PBS (1 × 300 μL). […] Each lysate was centrifuged at 4 °C for 5 min at 13,000 rpm, and the resulting supernatant was concentrated with a centrifugal filter (Amicon Ultra Centrifugal Filters 3K cutoff, Millipore), normalized to 1.0 mg/mL by the Bradford assay, and analyzed immediately or stored at −80 °C for subsequent analysis.
In a darkened (wrapped with aluminum foil) Eppendorf tube, each lysate (30 μL [30 μg]) was incubated with 10 μL of the freshly prepared “click” premix containing CuSO4 (5 mM), sodium ascorbate (5 mM), TBTA (200 μM), and N3–Alexa-647 (50 μM) were added to PBS (50 mM, pH 7.4). […] In-gel fluorescence was monitored (excitation λ = 635 nm; emission λ = 670 nm) using a Typhoon 9400 (GE Healthcare) fluorimager. […]

concentration of saturation binding kinetics [1] | SMILES | Tm shift (ΔTm) (14-3-3-E) [°C] | Kd (14-3-3-E; fit of ΔTm versus concentration, n = 2, read-out: Kd^app) [nM] | increase of the median survival rate (transgenic mice) [%] | binding (Tm shift) (14-3-3-B)
– | O=c1cc(COc2cc(Cl)cc(Cl)c2)[nH][nH]1 [P2] | 3.2 | 2850 | 13 | no binding
around 30 μM | C#CCN(Cc1cc(=O)[nH][nH]1)Cc1c(F)c(F)c(N=[N+]=[N-])c(F)c1F [PRAPP, 5-(((4-Azido-2,3,5,6-tetrafluorobenzyl)(prop-2-yn-1-yl)amino)methyl)-1,2-dihydro-3H-pyrazol-3-one] | 2.5 | – | – | –
